ChEMBL document CHEMBL1201862, “PubChem BioAssay data set” (2004)
Activity calls are given as the source filed them. No stated cut-off is given here; in the data, actives have a measured IC50 and inactives only a lower limit.

Molecular target: Envelope glycoprotein gp160 (Human immunodeficiency virus 1, UniProt Q6QLK5)
Test: inhibitors of HIV fusion peptide binding, primary screen, biochemical, uHTS, fluorescence dequenching (AID 1986)

Chain of Envelope glycoprotein gp160 (Q6QLK5 whole entry, the tested form may be a part): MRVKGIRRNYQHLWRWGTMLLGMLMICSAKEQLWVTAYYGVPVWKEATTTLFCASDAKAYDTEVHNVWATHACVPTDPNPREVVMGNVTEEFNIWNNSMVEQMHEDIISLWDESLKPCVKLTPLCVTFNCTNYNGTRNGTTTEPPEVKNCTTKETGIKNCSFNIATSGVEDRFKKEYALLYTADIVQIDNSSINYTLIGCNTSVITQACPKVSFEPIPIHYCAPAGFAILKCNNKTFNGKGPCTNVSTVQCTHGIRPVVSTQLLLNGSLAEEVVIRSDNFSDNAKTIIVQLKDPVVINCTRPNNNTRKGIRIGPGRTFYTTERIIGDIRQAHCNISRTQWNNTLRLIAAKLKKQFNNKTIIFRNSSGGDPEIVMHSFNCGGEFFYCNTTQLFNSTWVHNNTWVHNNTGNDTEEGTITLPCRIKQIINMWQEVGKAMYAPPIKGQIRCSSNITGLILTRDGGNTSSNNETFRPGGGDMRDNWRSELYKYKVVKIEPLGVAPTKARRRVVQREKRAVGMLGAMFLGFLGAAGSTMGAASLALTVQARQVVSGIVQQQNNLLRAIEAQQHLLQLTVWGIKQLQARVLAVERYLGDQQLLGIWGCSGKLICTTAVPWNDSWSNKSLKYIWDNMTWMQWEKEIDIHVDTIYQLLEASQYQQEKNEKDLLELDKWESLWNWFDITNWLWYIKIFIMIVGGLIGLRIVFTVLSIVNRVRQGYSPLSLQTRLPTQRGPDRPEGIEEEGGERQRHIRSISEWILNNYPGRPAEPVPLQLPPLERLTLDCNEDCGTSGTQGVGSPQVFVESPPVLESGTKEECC

Question: With Cc1cc(C)c2nc(N3C(=O)C(O)=C(C(=O)c4ccco4)C3c3ccco3)sc2c1 (stereo unspecified) as the compound, how does the IC50 read?
Answer: 12.4 µM (active)
